Here are results for seven compounds from patent US6303612A, “Derivatives of hydroxyphenylsulfanylbenzoic and hydroxphenylsulfanylarylacetic acids” (Leciva, A.S., priority 1998, dated 2001).

As a reminder, the pIC50 is the negative decadic logarithm of the IC50, by convention in mol/L. One may read the IC50 as the concentration that inhibits the measured activity by half.

pIC50: −log10 of the molar value. Values after ≈ are worked out from the molar mass of the structure shown. Read-outs that look alike come from different tables or passages of the source.

One assay concerns male mice. Kind of assay: Inhibition of arachidonic acid-induced ear inflammation in mice. The assay is classed as in vivo. The conditions noted are these: Mus musculus, po, 1 h. The method, then:
Inhibition of Arachidonic Acid-induced Ear Inflammation in Mice (Opas E. E. et al.: J. Invest. Dermatol. 84, 253 (1985) Ear inflammation was induced in male mice by 20 μl of arachidonic acid dissolved in acetone (concentration 100 mg/ml). The mice were sacrificed 1 h after application of arachidonic acid and the ears were cut off by standard means. The other, vehicle-treated ear of the same animal served as a control. The degree of ear hyperemia and the weight of ear lobes were evaluated. Test compounds were administered orally 1 h before the induction of inflammation.

The subject of the next assay is Wistar-Han rats. Description: Inhibition of carrageenan edema. The class given is in vivo. Particulars: Rattus norvegicus, dose 100 mg/kg; read-out: CE: inhibition of carrageenan-induced edema, % of inh. For orientation: Carrageenan injected into the paw causes an acute inflammation.
The next assay relates to rats. Kind of assay: Inhibition of carrageenan-induced pleuritis in rats. The class given is in vivo. Particulars: Rattus norvegicus, po, 4 h, dose 100 mg/kg, oral, values with mark n: p > 0.05. The procedure:
Inhibition of Carrageenan-induced Pleuritis in Rats
(Hidaka T. J.: Pharm. Pharmacol. 38, 242 (1986) 1 ml of 0.5% carrageenan solution in saline was administered intrapleurally to experimental animals under mild ether anesthesia. Test drugs were administered in single oral dose 1 h before carrageenan injection, 4 h following the carrageenan application the rats were killed and exudate was withdrawn from opened pleural cavity. The volume of exudate, its cellularity and total cell number were determined.

Assay [1] deals with peroxidation of lipids from the hepatic cells membranes. Kind of assay: Antioxidant effect in vitro. The assay is classed as biochemical. The conditions noted are these: at 100 μg. From the text:
Antioxidant Effect in vitro
The end-product, malonic dialdehyde, was transformed to coloured complex with thiobarbituric acid and determined spectrophotometrically. The antioxidant effect was expressed in % of peroxidation inhibition in the presence of the compound tested in comparison to a control sample.

The target of another assay is T1, LTD4 receptor (Cavia porcellus, UniProt Q2NNR5).
T1 construct: The membrane fraction was prepared from male guinea-pig lungs; from tissue; host or cells: male guinea-pig lung membranes
T1 sequence (Q2NNR5 1-340): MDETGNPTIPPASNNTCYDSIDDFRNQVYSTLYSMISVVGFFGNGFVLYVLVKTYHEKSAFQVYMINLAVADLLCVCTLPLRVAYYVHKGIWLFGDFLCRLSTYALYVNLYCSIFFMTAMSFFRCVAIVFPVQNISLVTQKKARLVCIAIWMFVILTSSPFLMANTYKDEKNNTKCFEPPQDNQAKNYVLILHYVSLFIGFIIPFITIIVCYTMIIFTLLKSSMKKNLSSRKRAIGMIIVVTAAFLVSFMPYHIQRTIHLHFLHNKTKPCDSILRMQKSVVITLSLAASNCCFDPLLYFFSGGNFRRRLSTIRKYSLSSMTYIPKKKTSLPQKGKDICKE
Kind of assay: LTD4 receptor binding study. Particulars: 3H-LTD4, guinea-pig lung membranes; for pIC50: read-out: Inh. of LTD4 rec. binding, IC50. The procedure: LTD4 Receptor Binding Study
This study was performed according to the method of Burns and coworkers (Burns R. F. et al.: Life Sci. 33, 645 (1983)). The membrane fraction was prepared from male guinea-pig lungs, and 4 mg of this fraction were incubated with 0.4 nM ^3 H-LTD4 for 60 min at 25° C. in 100 μl of the incubated mixture. The nonspecific binding was determined in the presence of 0.1 μM LTD4. The filtration of the membranes, washing, and radioactivity measurement were as above.

Assay [2] deals with LTB4 production in rat polymorphonuclear cells. Kind of assay: Ex vivo inhibition of LTB4 production (LTB4 biosynthesis). The class given is cell-based. Particulars: for IC50: Rattus norvegicus, read-out: Inh. of LTB4 biosynth., IC50; for Inh. of LTB4 biosynth., %: at 30 μg (%/μg). The procedure:
Ex vivo Inhibition of LTB4 Production The production of LTB4 was determined in rat polymorphonuclear cells from pleural exudate elicited by heat-activated rat serum (Palmer R. M. J., Salmon J. A.: Immunology 50, 65 (1983)). The cells were stimulated with the Ca ionophore A 23187 (Sigma) and incubated with various concentrations of the drugs tested. The sample containing only buffer was used for the determination of unaffected biosynthesis; the complete inhibition was measured in a sample with 100 μg of NDGA in 1 ml. LTB4 was determined in supernatant using a commercial RIA kit (Amersham).

A further assay has as its target LTB4 receptor (Cavia porcellus, UniProt H0VYV8). Description: LTB4 receptor binding study. The conditions noted are these: 3H-LTB4, guinea-pig spleen membranes; for pIC50: read-out: Inh. of LTB4 rec. binding, IC50; for inhibition at 20 µM: read-out: Inh. of LTB4 rec. binding, %. The procedure: LTB4 Receptor Binding Study
A slightly modified method of Cheng and coworkers (Cheng J. B. et al.: J. Pharm. Expl. Ther. 236, 126 (1986)) was used. The membrane fraction was prepared from male guinea-pig spleen; 2 mg of membranes were incubated with 0.3 nM ^3 H-LTB4 at 25° C. for 30 min in 100 μl of the incubated mixture. The nonspecific binding was determined in the presence of 0.1 μM LTB4. The membranes were filtered though Whatman GF/C paper and washed triply with buffer. The radioactivity was measured by liquid scintillation spectrometry, and the specific binding of ^3 H-LTB4 to the receptor was determined.

[3] abbreviates: values with mark n: p > 0.05, read-out: Ear edema, D: edema of ear lobe, % of inh.
Where [4] appears, read: values with mark n: p > 0.05, read-out: Ear edema, E: hyperemia of ear lobe, % of inh.
Where [5] appears, read: read-out: Experimental pleuritis, A: volume of exudate in pleural cavity, % of inh.
Where [6] appears, read: read-out: Experimental pleuritis, B: number of cells, % of inh.
[7] abbreviates: read-out: Experimental pleuritis, C: cellularity in a volume unit, % of inh.
The mark [8] stands for this setting: read-out: Inh. of LTD4 rec. binding, %.

LTB4 receptor, sequence (H0VYV8 1-348): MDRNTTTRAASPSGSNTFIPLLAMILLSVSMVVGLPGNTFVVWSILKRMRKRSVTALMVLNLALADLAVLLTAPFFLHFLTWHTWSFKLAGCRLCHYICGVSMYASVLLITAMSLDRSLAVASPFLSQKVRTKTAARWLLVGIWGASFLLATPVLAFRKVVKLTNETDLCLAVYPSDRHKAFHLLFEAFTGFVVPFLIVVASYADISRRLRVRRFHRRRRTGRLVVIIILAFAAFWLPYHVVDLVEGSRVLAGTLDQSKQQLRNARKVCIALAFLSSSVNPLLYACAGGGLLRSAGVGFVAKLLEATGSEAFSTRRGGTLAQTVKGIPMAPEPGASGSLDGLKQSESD

With `O=C(O)Cc1ccccc1Sc1cccc(OCc2ccc3cc(Cl)ccc3n2)c1` [Compound 31, 2-(3-(6-Chloroquinoline-2-ylmethoxy)phenylsulfanyl)phenylacetic Acid], the inhibition in vivo at 200 mg/kg in the assay with male mice (setting [3]) was determined as 16%; in the assay on male mice (setting [4]), 11%. The inhibition in vivo at 100 mg/kg in the assay with Wistar-Han rats turned out to be 13%; with rats (setting [5]), 24%; in the assay with rats (setting [6]), 75%; in the assay with rats (setting [7]) it was 39%. Besides, the “Antiox. effect, % of peroxidation inhibition” value in assay [1] is on record as 4%. The results for the pIC50 on LTD4 receptor and on LTB4 receptor were 5.94 and 4.23, respectively. The inhibition at 20 µM at LTD4 receptor (at 20 μM, read-out: Inh. of LTD4 rec. binding, %) was found to be 83%; on LTB4 receptor it was 40%. In assay [2], the IC50 was 0.46 µg/mL (≈ 1.06 µM). For the same compound, the “Inh. of LTB4 biosynth., %” value in assay [2] is listed as 100%.

Turning to `CCCc1c(OCCCCOc2ccc(Sc3ccccc3C(=O)O)cc2)ccc(C(C)=O)c1O` [Compound 7], the inhibition in vivo at 200 mg/kg came to 16% with male mice (setting [3]) and 5% in the assay with male mice (setting [4]). Moreover, the inhibition in vivo at 100 mg/kg with Wistar-Han rats worked out at 41%; in the assay on rats (setting [5]), 14%; in the assay with rats (setting [6]) it was 35%; in the assay on rats (setting [7]), 26%. Further, in assay [1], the “Antiox. effect, % of peroxidation inhibition” value is 16%. For the same compound, the pIC50 on LTD4 receptor is 4.87; on LTB4 receptor it was 4.92. Further, the inhibition at 100 µM at LTD4 receptor (setting [8]) stood at 100%. For the same compound, in assay [2], the “Inh. of LTB4 biosynth., %” value came to 100%. For the same compound, at LTB4 receptor, the inhibition at 20 µM was 68%.

For the compound `CCCc1c(OCCCOc2ccc(Sc3ccc(C(=O)O)cc3)cc2)ccc(C(C)=O)c1O` [Compound 3, 4-(4-(3-(4-Acetyl4-3-hydroxy-2-propylphenoxy)propoxy)phenylsulfanyl)benzoicAcid], the inhibition in vivo at 200 mg/kg in the assay with male mice (setting [3]) was found to be 8%; in the assay on male mice (setting [4]) it was 5%. Also, the inhibition in vivo at 100 mg/kg in the assay on Wistar-Han rats is 32%; with rats (setting [5]) it was 2%; with rats (setting [6]) it was 27%; in the assay on rats (setting [7]), 28%. In addition, the “Antiox. effect, % of peroxidation inhibition” value in assay [1] is given as 33%. The negative logarithm of the IC50 (pIC50) on LTD4 receptor is 4.72; at LTB4 receptor, 4.70. Further, the inhibition at 100 µM at LTD4 receptor (setting [8]) amounted to 97%. Further, in assay [2], the IC50 is 0.48 µg/mL (≈ 0.999 µM). Further, the “Inh. of LTB4 biosynth., %” value in assay [2] is given as 100%. At LTB4 receptor, the inhibition at 20 µM is 50%.

As to `CCCc1c(OCCCCOc2cccc(Sc3ccc(C(=O)O)cc3[N+](=O)[O-])c2)ccc(C(C)=O)c1O` [Compound 9, 4-(3-(4-(4-Acetyl-3-hydroxy-2-propylphenoxy)butoxy)phenylsulfanyl)-3-nitrobenzoic Acid], the inhibition in vivo at 200 mg/kg was determined as 14% in the assay on male mice (setting [3]) and 2% in the assay on male mice (setting [4]). For the same compound, the inhibition in vivo at 100 mg/kg was 19% in the assay with Wistar-Han rats, 34% in the assay with rats (setting [5]), 54% in the assay with rats (setting [6]) and 30% in the assay with rats (setting [7]). In addition, the “Antiox. effect, % of peroxidation inhibition” value in assay [1] came to 40%. For the same compound, the pIC50 at LTD4 receptor was 4.32; on LTB4 receptor it was 4.82. On LTD4 receptor (setting [8]), the inhibition at 100 µM came to 53%. Moreover, the “Inh. of LTB4 biosynth., %” value in assay [2] was found to be 100%. Also, at LTB4 receptor, the inhibition at 20 µM came to 65%.

As for `CCCc1c(OCCCCOc2ccc(Sc3ccccc3CC(=O)O)cc2)ccc(C(C)=O)c1O` [Compound 26, 2-(4-(4-(4-Acetyl-3-hydroxy-2-propylphenoxy)butoxy)phenylsulfanyl)phenylacetic Acid], the inhibition in vivo at 200 mg/kg in the assay with male mice (setting [3]) was determined as 17%; in the assay with male mice (setting [4]), 0%. The inhibition in vivo at 100 mg/kg in the assay on Wistar-Han rats came out at 34%; in the assay on rats (setting [5]) it was 20%; in the assay on rats (setting [6]), 8%; in the assay with rats (setting [7]), 23%. Further, in assay [1], the “Antiox. effect, % of peroxidation inhibition” value is 0%. The negative logarithm of the IC50 (pIC50) at LTD4 receptor is 4.46; on LTB4 receptor, 4.74. The inhibition at 100 µM on LTD4 receptor (setting [8]) is 63%. Besides, the “Inh. of LTB4 biosynth., %” value in assay [2] is on record as 97%. Moreover, the inhibition at 20 µM at LTB4 receptor came to 29%.

As to `O=C(O)c1ccccc1Sc1ccc(OCc2ccc3cc(Cl)ccc3n2)cc1` [Compound 21], the inhibition in vivo at 200 mg/kg in the assay with male mice (setting [3]) is 7%; with male mice (setting [4]), 3%. In addition, the inhibition in vivo at 100 mg/kg with Wistar-Han rats was found to be 18%; in the assay on rats (setting [5]) it was 15%; in the assay with rats (setting [6]), 12%; in the assay on rats (setting [7]), 4%. The “Antiox. effect, % of peroxidation inhibition” value in assay [1] amounted to 0%. Moreover, the pIC50 is 5.77 at LTD4 receptor and 4.52 at LTB4 receptor. Further, the inhibition at 100 µM at LTD4 receptor (setting [8]) was 86%. In assay [2], the IC50 came to 0.08 µg/mL (≈ 0.19 µM). Further, the “Inh. of LTB4 biosynth., %” value in assay [2] was determined as 100%. The inhibition at 20 µM at LTB4 receptor was determined as 39%.

With `CCCc1c(OCCOc2cccc(Sc3ccc(C(=O)O)cc3)c2)ccc(C(C)=O)c1O` [Compound 2, 4-(3-(2-(4-Acetyl-3-hydroxy-2-propylphenoxy)ethyloxy)phenylsulfanyl)benzoicAcid], the values for the inhibition in vivo at 200 mg/kg in the assay on male mice (setting [3]) and in the assay with male mice (setting [4]) were 18% and 2%, respectively. The inhibition in vivo at 100 mg/kg in the assay with Wistar-Han rats worked out at 30%; with rats (setting [5]), 2%; with rats (setting [6]), 43%; in the assay with rats (setting [7]) it was 46%. For the same compound, in assay [1], the “Antiox. effect, % of peroxidation inhibition” value stood at 41%. The negative logarithm of the IC50 (pIC50) on LTD4 receptor is 4.58; on LTB4 receptor it was 5.28. The inhibition at 100 µM at LTD4 receptor (setting [8]) was determined as 88%. The half-maximal inhibitory concentration (IC50) in assay [2] amounted to 0.8 µg/mL (≈ 1.71 µM). The “Inh. of LTB4 biosynth., %” value in assay [2] was found to be 100%. The inhibition at 20 µM on LTB4 receptor worked out at 98%.
